Source: patent US20250332132A1, “SELENIUM-CONTAINING SUBSTANCE FOR TREATMENT OF CANCER” (SHANGHAI INSTITUTE OF NUTRITION AND HEALTH, CHINESE ACADEMY …, priority 2022, published 2025)
Values belong to the compound of their own block, whether it stands above or below them.

Key:
[1] = system: LLC cell subcutaneous xenograft tumors; test: Subcutaneous LLC xenograft tumor model in mice (tumor growth, volume, weight); format: in vivo, mouse (C57BL/6J)
Experimental: FIG. 1 panel A: Experimental pattern diagram. Mice were first subcutaneously injected with LLC cells (2*10^5 cells per mouse) to establish xenograft tumors. After 14 days of tumor formation, mice received SeMet treatment for two weeks, with intraperitoneal injection of SeMet at a dose of 2 mg/kg, 5 times per week; FIG. 1 panel B: Tumor growth statistical curve in mice; FIG. 1 panel C: Representative photographic results of mouse tumors.
FIG. 5 illustrates the therapeutic effects of SeMet and PD-1 antibody on LLC cell subcutaneous xenograft tumors in mice. FIG. 5 panel A: Experimental pattern diagram. Mice were first subcutaneously injected with LLC cells (2*10^5 cells per mouse) to establish xenograft tumors. After 14 days of tumor formation, mice were treated with SeMet and PD-1 antibody alone or in combination by intraperitoneal injection for two weeks. The dosage of SeMet was 2 mg/kg, 5 times per week; the dosage of PD-1 antibody was 200 μg per mouse, 2 times per week; FIG. 5 panel B: Tumor growth statistical curve in mice; FIG. 5 panel C: Ratio of tumor to body weight in mice; FIG. 5 panel D: Representative photographic results of mouse tumors.
All animal experiments were approved by the Animal Ethics Committee of the Institute of Nutrition Sciences, Shanghai Institutes for Biological Sciences, Chinese Academy of Sciences, and were conducted in accordance with the protocols approved by the Animal Care and Use Committee of Shanghai Institutes for Biological Sciences. Six-week-old C57BL/6J mice were purchased from Shanghai Slake Experimental Animal Co., Ltd. and were housed in an SPF-grade animal facility. […] The tumor size was measured every two days, and the tumor volume (mm^3) was calculated using the following formula: ½×a×b^2, wherein a was the long diameter and b was the short diameter of the tumor. After the mice were euthanized, the tumors were excised, weighed, and the average weight of tumors in each group was calculated. The excised tumors were fixed with paraformaldehyde for subsequent immunohistochemical or immunofluorescence analysis.
C57BL/6J mice were subcutaneously injected with LLC cells (2*10^5 cells per mouse) to establish xenograft tumors. After 14 days of tumor formation, mice received SeMet treatment for two weeks (FIG. 1 panel A).
Subsequently, we investigated the therapeutic effects of SeMet and PD-1 antibody used alone or in combination on LLC cell subcutaneous xenograft tumors in mice. Mice were first subcutaneously injected with LLC cells (2*10^5 cells per mouse) to establish xenograft tumors. After 14 days of tumor formation, mice were treated with SeMet and PD-1 antibody alone or in combination by intraperitoneal injection for two weeks. The dosage and frequency of SeMet were the same as previously described, while the dosage of PD-1 antibody was 200 μg per mouse, 2 times per week (FIG. 5 panel A).
An L-selenomethionine was used to construct an N-acetyl-selenomethionine (N-Ac-SeMet) to improve its stability. To verify the therapeutic effect of the N-acetyl-selenomethionine on lung cancer, C57BL/6J mice were subcutaneously injected with LLC cells (2*10^5 cells per mouse) to establish xenograft tumors and divided into four groups: control group, selenomethionine (SeMet) treated group, N-acetyl-selenomethionine (N-Ac-SeMet) treated group, and anti-PD1 treated group. After 14 days of tumor formation, the mice in each group were treated for two weeks.

[2] = system: CD45+ immune cells, CD25+Foxp3+ Treg cells, IL-17a+ TH17 cells; test: Flow cytometry of immune cells in LLC xenograft tumors; format: in vivo, mouse (C57BL/6J)
Experimental: Preparation of single-cell suspension from mouse tumor cells: 200 mg of mouse tumor tissue was obtained, cut into pieces and added to 2.43 ml of tumor digestion solution, followed by digestion in a 37° C. shaking water bath for 30 minutes. Flow cytometry staining included surface antigen staining and intracellular factor (cytokines and transcription factors) staining. For the cytokine detection, broad-spectrum activation inhibitors (PMA, ionomycin, or BFA, added at a ratio of 1:1000) were first prepared with the RPMI-1640 medium. 100 μl of each reagent was added to resuspend the cells, and the cells were then transferred to a 96-well plate and treated in a 37° C. cell incubator for 4-6 h. Subsequently, 200 μl of FACS buffer was added, and the cells were pipetted to mix evenly before transferred to a 1.5 ml eppendorf tube. The tube was centrifuged at 350 g for 5 minutes, and the supernatant was carefully aspirated. Cells were resuspended in 100 μl of PBS. For the surface antigen staining, the above steps were omitted. The cell suspension was placed on ice, and live/dead dye (at a ratio of 1:1000) was added. Staining was performed on ice in darkness for 30 minutes. Cells were washed with 1 ml of PBS, centrifuged at 350 g for 5 minutes, and the supernatant was carefully removed. The cell precipitate was resuspended in the FACS buffer, and the blocking antibody CD16/CD32 was added at a ratio of 1:200. The mixture was placed on ice in darkness for 30 minutes. Subsequently, surface antibodies were added at a ratio of 1:200: CD45, CD3, CD4, and CD25 antibodies were sequentially added for Treg cell surface staining; CD45, CD3, and CD4 antibodies were sequentially added for Th17 cell staining. Incubation was performed on ice in darkness for 30 minutes. Cells were washed with 1 ml of the FACS buffer, then centrifuged at 350 g for 5 minutes, and the supernatant was carefully removed. For intracellular factor staining, 250 μl of the fixation/permeabilization solution was added, and the cells were incubated on ice in darkness for 2 h. Then, 1 ml of the fixation/permeabilization wash buffer was added, the cells were centrifuged at 500 g for 5 minutes, and the supernatant was carefully removed. Cells were resuspended in the fixation/permeabilization wash buffer, and intracellular antibodies Foxp3 and IL-17A were added at a ratio of 1:200. The cells were incubated on ice in darkness for 30 minutes. After washing with 1 ml of the FACS buffer and centrifugation at 500 g for 5 minutes, the supernatant was carefully removed. Cells were resuspended in 200 μl of the FACS buffer and prepared for flow cytometry analysis.

selenoproteins = test: qPCR / Western blot of selenoprotein expression in LLC xenograft tumors; format: in vivo, mouse (C57BL/6J)
PD-L1 = test: qPCR, WB and immunofluorescence of PD-L1 expression in LLC xenograft tumors; format: in vivo, mouse (C57BL/6J); conditions: immunofluorescence, FIG. 4
[3] = Selenium content in subcutaneous xenograft tumors; format: in vivo, mouse; conditions: mice, after SeMet treatment
CD4 and Foxp3 = test: qPCR of CD4 and Foxp3 expression in LLC xenograft tumors; format: in vivo, mouse (C57BL/6J); conditions: vs control group, FIG. 7A
Experimental: After the cells were cultured or treated, the medium was discarded, and the cells were washed once with ice-cold PBS. Then, 1 mL of Trizol reagent was added, and the cells were completely blown down. If it was for the tissue, 10-20 mg of tissue was homogenized into a homogenate using a grinder, with the addition of steel beads and 1 mL of Trizol. 200 μL of chloroform was added into the cell or tissue homogenate in 1 mL of Trizol, mixed vigorously, and placed on ice for 5 minutes. The mixture was centrifuged at 12,000 rpm for 10 minutes at 4° C. Then, 400 μL of the supernatant was carefully aspirated and added to an equal volume of isopropanol, vigorously mixed, and placed on ice for 15 minutes and centrifuged again at 12,000 rpm for 10 minutes at 4° C. Afterwards, a white RNA precipitate was visible at the bottom. The supernatant was carefully discarded, and 1 ml of 75% ethanol (diluted with DEPC-treated water) was added. […] A certain volume of DEPC-treated water was added to dissolve the RNA, and the concentration was measured. […] The genomic DNA removal reaction system was as follows: According to the gene primers to be detected, the above-mentioned Mix without the cDNA template was prepared, mixed thoroughly, and kept on ice until use. […] The detection program was as follows: After detection, the relative gene expression levels were calculated using the 2^−┐┐T method.

B16 melanoma cells = test: Subcutaneous B16 melanoma xenograft tumor model in mice; format: in vivo, mouse (C57BL/6J); conditions: C57BL/6J mice, B16 2*10^5 cells s.c.; treated two weeks from day 14; FIG. 10
Experimental: To verify the therapeutic effect of selenomethionine (SeMet) on melanoma, C57BL/6J mice were subcutaneously injected with B16 melanoma cells (2*10^5 cells per mouse) to establish xenograft tumors. After 14 days of tumor formation, the mice were treated with SeMet for two weeks (FIG. 10 panel A).

[4] = system: Treg cells, IL-17a-secreting TH17 cells; test: Flow cytometry of Treg and TH17 cells in B16 xenograft tumors; format: in vivo, mouse (C57BL/6J)
Experimental: (§1) Preparation of single-cell suspension from mouse tumor cells: 200 mg of mouse tumor tissue was obtained, cut into pieces and added to 2.43 ml of tumor digestion solution, followed by digestion in a 37° C. shaking water bath for 30 minutes. Flow cytometry staining included surface antigen staining and intracellular factor (cytokines and transcription factors) staining. For the cytokine detection, broad-spectrum activation inhibitors (PMA, ionomycin, or BFA, added at a ratio of 1:1000) were first prepared with the RPMI-1640 medium. 100 μl of each reagent was added to resuspend the cells, and the cells were then transferred to a 96-well plate and treated in a 37° C. cell incubator for 4-6 h. Subsequently, 200 μl of FACS buffer was added, and the cells were pipetted to mix evenly before transferred to a 1.5 ml eppendorf tube. The tube was centrifuged at 350 g for 5 minutes, and the supernatant was carefully aspirated. Cells were resuspended in 100 μl of PBS. For the surface antigen staining, the above steps were omitted. The cell suspension was placed on ice, and live/dead dye (at a ratio of 1:1000) was added. Staining was performed on ice in darkness for 30 minutes. Cells were washed with 1 ml of PBS, centrifuged at 350 g for 5 minutes, and the supernatant was carefully removed. […]

colon cancer CT26 cells = test: Orthotopic CT26 colon cancer model in mice; format: in vivo, mouse (BALB/C); conditions: BALB/C mice, CT26 tumor pieces implanted orthotopically at cecal end; treatment from second day; effects similar to anti-PD1; FIG. 12 A-B
Description: To verify the therapeutic effect of selenomethionine (SeMet) on colon cancer, BALB/C mice were subcutaneously inoculated with colon cancer CT26 cells. After subcutaneous xenograft tumors grew to a certain size, the tumors were cut into 1 mm*1 mm*1 mm pieces that were then orthotopically implanted at the cecal end of the mice. SeMet intervention was initiated on the second day after orthotopic tumor formation.

[5] = system: Treg cells, IL-17a-secreting TH17 cells; test: Flow cytometry of Treg and TH17 cells in CT26 colon tumors; format: in vivo, mouse (BALB/C)
Experimental: as §1

[6] = NSCLC subcutaneous xenograft tumor model, vs control group, summary statement
[7] = NSCLC subcutaneous xenograft tumor model, summary statement

SMILES: C[Se]CC[C@H](NC(C)=O)C(=O)O [N-Ac-SeMet, N-acetyl-selenomethionine]
- average tumor weight ([1]; LLC s.c. tumors, end of treatment, vs control, p<0.05, FIG. 8C): significantly lower than those in the control group
- tumor weight-to-body weight ratio ([1]; LLC s.c. tumors, end of treatment, vs control, p<0.05, FIG. 8D): significantly lower than those in the control group
- tumor volume ([1]; LLC s.c. tumors, treated two weeks from day 14, Day 15, vs control, p<0.05, FIG. 8 A-B): significantly smaller than that in the control group
- proportion of Treg (CD25+Foxp3+) cells in tumors ([2]; LLC tumors, flow cytometry, FIG. 9 A-B): significantly reduced
- proportion of Th17 (IL-17a+) cells in tumors ([2]; LLC tumors, flow cytometry, FIG. 9 C-D): significantly increased

- selenium content in subcutaneous xenograft tumors [3]: significantly increased
SMILES: C[Se]CC[C@H](N)C(=O)O [SeMet, L-selenomethionine]
- growth of subcutaneous LLC tumors (tumor growth curves) ([1]; C57BL/6J mice, LLC 2*10^5 cells s.c., after 14 days SeMet 2 mg/kg i.p. 5 times per week for two weeks, FIG. 1): effectively inhibit the growth of subcutaneous LLC tumors
- tumor growth ([1]; LLC s.c. tumors, i.p. two weeks from day 14, SeMet 2 mg/kg 5 times per week, PD-1 antibody 200 μg per mouse 2 times per week, alone or combined, vs control, FIG. 5B): significantly reduced
- tumor mass [1, 6]: significantly reduced
- tumor volume [1, 6]: significantly reduced
- tumor growth [1, 7]: significantly inhibit tumor growth
- tumor volume and mass compared with the PD-1 group [1, 7]: no significant difference
- ratio of tumor to body weight ([1]; same study as FIG. 5B, FIG. 5C): validated this result
- visual inspection of excised subcutaneous mouse tumors ([1]; same study, FIG. 5D): significantly reduced
- expression of SOD1 and GPX1 at the protein level (selenoproteins; LLC xenograft tumors, vs control group, WB, FIG. 3 M-N): significant increase
- expression of selenoproteins SOD1, SOD2, GPX1, GPX2, GPX4, Sephs2, Sepx1, SelS, SelP, Txnrd1, Txnrd2, Txnrd3 at the mRNA level (selenoproteins; LLC xenograft tumors, vs control group, qPCR, FIG. 3 A-L): significant increase
- expression of selenoproteins GPX1, GPX2, SOD1, SOD2, Sephs2, Sepx1, SelS, Txnrd1, Txnrd2, SelF, Selk, SelW, MT2 at the mRNA level (selenoproteins; LLC xenograft tumors, vs control group, qPCR, FIG. 6): increased
- levels of major selenoproteins, including GPX1, GPX4 (selenoproteins; NSCLC tissues after treatment, summary statement): significantly increased
- expression of PD-L1 (PD-L1): increased
- expression levels of CD4 and Foxp3 (mRNA) (CD4 and Foxp3): reduced
- number of CD45+ immune cells ([2]; LLC tumors digested into single cells, flow cytometry, FIG. 7 B-C): significantly increased
- proportion of CD25+Foxp3+ Treg cells ([2]; LLC tumors, flow cytometry, FIG. 7 D-E): significantly reduced
- proportion of IL-17a-secreting TH17 cells ([2]; LLC tumors, flow cytometry, FIG. 7 F-G): significantly increased
- number of Treg cells infiltrating the tumor ([2]; NSCLC tissues, flow sorting, summary statement): significantly reduced
- growth of subcutaneous B16 tumors (B16 melanoma cells): effectively inhibited the growth of subcutaneous B16 tumors, with effects similar to anti-PD1 treatment
- proportion of Treg cells ([4]; FIG. 11 A, C): significantly reduced
- proportion of IL-17a-secreting TH17 cells ([4]; FIG. 11 B, D): significantly increased
- colon cancer growth (colon cancer CT26 cells): effectively inhibited
- proportion of Treg cells ([5]; FIG. 12 C, E): significantly reduced
- proportion of IL-17a-secreting TH17 cells ([5]; FIG. 12 D, F): increased
